Numbered stars: 1 amine (or outer) side, 2 acyl side, 3 side chain; on linkers, the order of the positions; unused ones are H or OH. Square brackets hold non-standard residues; d marks the D form. Peptide text beside a SMILES is read from it. azaPhe = O=C(N(Cc1ccccc1)N[*:1])[*:2]; azaPro = O=C(N1CCCN1[*:1])[*:2]
Assays:
Format in all cases: in vivo
[1] = test system: CD36^+/+ and CD36^−/− mice; test: Area at risk and infarct size after 30-min LCAL and 48 hours reperfusion (Evans blue/TTC)
Source text: Animals. CD36^−/− mice were generated by targeted homologous recombination and backcrossed six times to C57BI/6. Wild-type control littermates (CD36^+/+) were bred from the same cross and were therefore of identical genetic background [Febbraio et al., 2000]. Male mice, aged 23 (±1) weeks, were used for experiments. They were fed standard chow (#5075, Charles Rivers, Saint-Constant, Québec, Canada) and water ad libitum, and housed singly during treatment periods (2 or 10 weeks). Daily pharmacological treatments with 300 μg/kg of EP 80317 or CP1A(IV) or vehicle (0.9% NaCl) were done by subcutaneous (s.c.) injections.
(§1) C57BU6 mice were bred in house. Male mice, aged 23 (±1) weeks, were used for experiments. They were fed standard chow (#5075, Charles Rivers, Saint-Constant, Québec, Canada) and water ad libitum, and housed singly during treatment periods (2 weeks). Daily pharmacological treatments with 300 μg/kg (289 nmol/kg) of EP 80317 or 289 nmol/kg of CP-3(IV), 289 nmol/kg of CP-AP-4 or vehicle (0.9% NaCl) were done by subcutaneous (s.c.) injections.
(§2) Experimental model of IHD: Transient left coronary artery ligation in vivo. Mice were subjected to a transient LCAL surgery as described before, with minor modifications [Tarnayski et al., 2004]. Mice were injected i.p. with buprenorphine (0.05 mg/kg) and placed in an induction chamber with inhalation anesthesia comprised of 3% isoflurane mixed with 100% oxygen. Mice were intubated with a blunt ended 20-gauge catheter into the trachea via the mouth and mechanically ventilated at a tidal volume of 7 ml/kg at 130 respirations/min with a MiniVent™ mouse ventilator (model 845, Harvard Apparatus, Saint-Laurent, QC, Canada). Anesthesia was maintained with 1.5-2% isoflurane and the animals were kept warm using electrical heating pads during the surgical procedure. The chest was opened by a horizontal incision through the skin and muscle layers at the third intercostal space exposing the left side of the heart. […] Visual blanching distal to the coronary occlusion confirmed myocardial ischaemia. Lidocaine (6 mg/kg) was administered i.p. just following occlusion and prior to reperfusion. After 30 minutes, the PE10 tubing was removed allowing reperfusion. The lungs were reinflated and the chest wound closed layer by layer before extubation. At 6 hours following reperfusion, mice were anesthetized (isoflurane), a blood sample withdrawn, and the heart arrested in diastole by an intravenous injection of 1 M KCl (0.5 mL). Hearts were immediately frozen at −80° C. unless otherwise stated.
Evaluation of area at risk and infarct size. Two days after reperfusion, the left anterior descending (LAD) coronary artery was re-occluded at the original site and the abdominal aorta was injected retrogradly with 5% Evans blue dye to delineate the AAR by the absence of dark blue staining. The left ventricle, including the interventricular septum, was dissected and cut into transverse 1-mm slices from the apex to the base, using an acrylic matrix (Alto Inc., Hatfield, Pa., USA). The slices were incubated in 1% triphenyltetrazolium chloride solution at 37° C. for 15 min and placed in 10% neutral buffered formalin for 12 hours. Each slice was weighed and photographed on both sides with a digital camera (Nikon, Coolpix™ 4500, Mississauga, Ontario, Canada). The total LV area, AAR and IA were determined for each side of a slice by planimetric analysis using Adobe CS3 Photoshop™ software (Ottawa, ON, Canada), and averaged. The infarct weight was determined as follows: [(A1×WT1)+(A2×WT2)+(A3×WT3)+(A4×WT4) . . . ] where A and WT are the infarct area and weight of the section, respectively. The AAR weight was calculated in a similar manner, but by subtracting the blue (viable) stained zone from the weight. The results are expressed in terms of % IA/AAR, IA/LV and AAR/LV.

[2] = test system: C57BL/6 mice; test: Cardiac troponin I (cTnI) in plasma, ELISA; conditions: 48 hours post-ischemia; 2 weeks 289 nmol/kg; compared to vehicle
Description: as §1
as §2, with “At 6 hours following reperfusion, mice were anesthetized (isoflurane), a blood sample withdrawn, and the heart arrested in diastole by an intravenous injection of 1 M KCl (0.5 mL).” left out
Cardiac troponin I (cTnI) concentrations in plasma. cTnI plasma levels were assayed using the High Sensitivity Mouse Cardiac Troponin-I ELISA Kit (Life Diagnostics, Inc., West Chester, Pa., Cat. No. 2010-1-HSP), according to the manufacturer's instructions.

[3] = test system: C57BL/6 mice; test: Blood lactate after transient ischemia; conditions: 6-hour reperfusion; 2 weeks 289 nmol/kg; P<0.05 compared to vehicle
Description: as §1, §2
Blood lactate. Blood lactate was determined using the Lactate Pro Analyser (FaCT Canada Consulting Ltd, Quesnel, BC, Canada), according to the manufacturer's instructions.

Row | SMILES | reduction of infarct area ([1]; 2-week pretreatment, same drug regimen (300 μg/kg/d), CD36^+/+ mice, 48 hours reperfusion) [%] | reduction of cardiac troponin I (cTnI) levels in plasma [2] [%] | area-at-risk ([1]; mouse, in vivo) | reduction of IA/LV ratios ([1]; mouse, in vivo) [%] | reduction of lactate concentration in blood [3] [%] | area-at-risk ([1]; CD36^+/+ (C57BL/6) mice, 289 nmol/kg 2 weeks, 48 hours reperfusion, mean (±SE)) | reduction of IA/LV ratios ([1]; CD36^+/+ (C57BL/6) mice, 289 nmol/kg 2 weeks, 48 hours reperfusion, p<0.001 vs 0.9% NaCl) [%]
1 | C[C@H](N)C(=O)NN(Cc1ccccc1)C(=O)N[C@@H](C)C(=O)N[C@@H](Cc1c[nH]c2ccccc12)C(=O)N[C@H](Cc1ccccc1)C(=O)N[C@@H](CCCCN)C(N)=O [CP1A(IV), Ala-AzaPhe-Ala-Trp-DPhe-Lys-NH2] (H-A[azaPhe]AW[dF]K-NH2) | 49 |  |  |  |  |  | 
2 | C[C@H](N)C(=O)N[C@H](Cc1c[nH]c2ccccc12)C(=O)N[C@@H](C)C(=O)NN(Cc1ccccc1)C(=O)N[C@H](Cc1ccccc1)C(=O)N[C@@H](CCCCN)C(N)=O [CP-3(iv), Ala-D-Trp-Ala-AzaPhe-DPhe-Lys-NH2] (H-A[dW]A[azaPhe][dF]K-NH2) |  | 42 | 52 (±3) % | 56 | 27 |  | 
3 | NCCCC[C@H](NC(=O)[C@@H](Cc1ccccc1)NC(=O)[C@H](Cc1c[nH]c2ccccc12)NC(=O)N1CCCN1C(=O)[C@@H](Cc1c[nH]c2ccccc12)NC(=O)[C@@H](N)Cc1cnc[nH]1)C(N)=O [CP-AP-4, His-D-Trp-AzaPro-Trp-DPhe-Lys-NH2] (H-H[dW][azaPro]W[dF]K-NH2) |  | 54 |  |  | 32 | 50 (±4) % | 50

From patent US20100279941A1, “CD36 MODULATION AND USES THEREOF” (priority 2009, published 2010)
